From PMC8876215, “Anticancer Activity of the Choline Kinase Inhibitor PL48 Is Due to Selective Disruption of Choline Metabolism and Transport Systems in Cancer Cell Lines” (Pharmaceutics, 2022)

Target: T1, ChoKα1 (choline kinase α1) (Homo sapiens, UniProt P35790)
T1 construct: gene CHKA; truncated form of ChoKα1 (Δ75–457), N-terminal 6x His-tag
Assay: radiometric assay: [methyl-14C]choline to phosphocholine by purified recombinant enzyme, TLC and scintillation counting
Type: biochemical

T1 sequence (P35790 75-457): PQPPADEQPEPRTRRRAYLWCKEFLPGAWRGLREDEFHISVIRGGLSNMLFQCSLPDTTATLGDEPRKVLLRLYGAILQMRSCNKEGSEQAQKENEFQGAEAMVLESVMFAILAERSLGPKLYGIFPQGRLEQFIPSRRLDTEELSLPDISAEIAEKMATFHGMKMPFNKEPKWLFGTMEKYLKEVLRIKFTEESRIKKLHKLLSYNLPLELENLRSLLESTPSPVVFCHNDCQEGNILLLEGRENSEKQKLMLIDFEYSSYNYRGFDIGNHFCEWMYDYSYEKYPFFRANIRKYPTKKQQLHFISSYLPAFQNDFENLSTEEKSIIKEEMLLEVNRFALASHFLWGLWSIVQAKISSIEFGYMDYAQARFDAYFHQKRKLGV

- IC50: 658 ± 67 nM
Structure (SMILES): Clc1ccc2c(N3CCCC3)cc[n+](Cc3ccc(SCCSc4ccc(C[n+]5ccc(N6CCCC6)c6ccc(Cl)cc65)cc4)cc3)c2c1 [PL48]
